Measurements: ChEMBL document CHEMBL1201862, “PubChem BioAssay data set” (2004)
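48-hour exposure; five concentrations; linearly interpolated endpoints. GI50: concentration for 50% inhibition of growth.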 Calls of active or inactive are those of the source. Rule as the data show it: active = GI50 up to about 1.1 µM and inactive = higher. Where a SMILES comes first, the peptide text is derived from it. [ ]: non-standard residue; d: D form. The star is where a group is joined. ξ: configuration not given here. ξF = NC(Cc1ccccc1)C(=O)O; Cbz = O=C(OCc1ccccc1)*; Aib = CC(C)(N)C(=O)O

How the values were obtained:
Test in all cases: inhibition of tumour cell growth, NCI panel, 48 h
Malme-3M = system: Malme-3M
U-251 = system: U-251
LOX IMVI = system: LOX IMVI
EKVX = system: EKVX
HOP-62 = system: HOP-62
HCT-15 = system: HCT-15
MOLT-4 = system: MOLT-4
COLO 205 = system: COLO 205
HT-29 = system: HT-29
SF-539 = system: SF-539
HCT-116 = system: HCT-116
A549 = system: A549
OVCAR-3 = system: OVCAR-3
SNB-75 = system: SNB-75
ACHN = system: ACHN
SK-OV-3 = system: SK-OV-3
SNB-19 = system: SNB-19
SK-MEL-2 = system: SK-MEL-2
A498 = system: A498
SK-MEL-28 = system: SK-MEL-28

Compound	GI50 (Malme-3M)	GI50 (U-251)	GI50 (LOX IMVI)	GI50 (EKVX)	GI50 (HOP-62)	GI50 (HCT-15) [µM]	GI50 (MOLT-4)	GI50 (COLO 205)	GI50 (HT-29)	GI50 (SF-539)	GI50 (HCT-116)	GI50 (A549)	GI50 (OVCAR-3)	GI50 (SNB-75)	GI50 (ACHN)	GI50 (SK-OV-3)	GI50 (SNB-19)	GI50 (SK-MEL-2)	GI50 (A498)	GI50 (SK-MEL-28)
Nc1nc(=S)[nH]c2nc3c(c(-c4ccccc4)c12)CCCC3	> 100 µM (inactive)	> 100 µM (inactive)	> 100 µM (inactive)	50 µM (inactive)	> 100 µM (inactive)	> 100	> 100 µM (inactive)	> 100 µM (inactive)	> 100 µM (inactive)	71.6 µM (inactive)	> 100 µM (inactive)	> 100 µM (inactive)	> 100 µM (inactive)	34.8 µM (inactive)	> 100 µM (inactive)	> 100 µM (inactive)	> 100 µM (inactive)			
C=CC(Br)(CBr)CCC(Cl)C(C)C (configuration not stated)	1.58 µM (inactive)	1.66 µM (inactive)	1.15 µM (inactive)	9.66 µM (inactive)	1.8 µM (inactive)		1.06 µM (active)	3.38 µM (inactive)	1.66 µM (inactive)	2.31 µM (inactive)	3.12 µM (inactive)	4.69 µM (inactive)	2.02 µM (inactive)	1.49 µM (inactive)	2.53 µM (inactive)	4.25 µM (inactive)	2.2 µM (inactive)	1.92 µM (inactive)	13.7 µM (inactive)	1.58 µM (inactive)
CCSc1ncnc2c(C3OC(CO)C(O)C3O)nsc12 (configuration not stated)	> 100 µM (inactive)	> 100 µM (inactive)	> 100 µM (inactive)	> 100 µM (inactive)	> 100 µM (inactive)	> 100	> 100 µM (inactive)	> 100 µM (inactive)	> 100 µM (inactive)	> 100 µM (inactive)	> 100 µM (inactive)	> 100 µM (inactive)	> 100 µM (inactive)	> 100 µM (inactive)		> 100 µM (inactive)		> 100 µM (inactive)	> 100 µM (inactive)	> 100 µM (inactive)
COC1CCC(OS(C)(=O)=O)CO1 (configuration not stated)	> 100 µM (inactive)	> 100 µM (inactive)			> 100 µM (inactive)		20.6 µM (inactive)	> 100 µM (inactive)	> 100 µM (inactive)	> 100 µM (inactive)	> 100 µM (inactive)		> 100 µM (inactive)	60.5 µM (inactive)	> 100 µM (inactive)	> 100 µM (inactive)	> 100 µM (inactive)	> 100 µM (inactive)	> 100 µM (inactive)	> 100 µM (inactive)
COc1ccccc1C1C(C(=O)O)=C(CO)Oc2cc3c(cc21)OCO3 (configuration not stated)	> 100 µM (inactive)	> 100 µM (inactive)	> 100 µM (inactive)	> 100 µM (inactive)		> 100	> 100 µM (inactive)	> 100 µM (inactive)	> 100 µM (inactive)	> 100 µM (inactive)			> 100 µM (inactive)	> 100 µM (inactive)	> 100 µM (inactive)	> 100 µM (inactive)	> 100 µM (inactive)	> 100 µM (inactive)	> 100 µM (inactive)	> 100 µM (inactive)
O=[N+]([O-])c1ccc(Nc2nc3ccccc3s2)cc1	15.9 µM (inactive)	17.3 µM (inactive)	14.9 µM (inactive)	18.7 µM (inactive)	29.2 µM (inactive)	28.8	8.36 µM (inactive)		34.6 µM (inactive)			47.6 µM (inactive)	18.7 µM (inactive)		29.5 µM (inactive)		38.5 µM (inactive)	25.5 µM (inactive)	30.4 µM (inactive)	46.2 µM (inactive)
O=C(O)C1Cc2c([nH]c3ccccc23)C=N1 (configuration not stated)	> 100 µM (inactive)	> 100 µM (inactive)	> 100 µM (inactive)	> 100 µM (inactive)	> 100 µM (inactive)	> 100	> 100 µM (inactive)	> 100 µM (inactive)	> 100 µM (inactive)	> 100 µM (inactive)	> 100 µM (inactive)	> 100 µM (inactive)	> 100 µM (inactive)	> 100 µM (inactive)		> 100 µM (inactive)	> 100 µM (inactive)	> 100 µM (inactive)	> 100 µM (inactive)	> 100 µM (inactive)
CC1C/C(=C\c2ccc(O)c(O)c2)C(=O)/C(=C/c2ccc(O)c(O)c2)C1 (configuration not stated)	10.4 µM (inactive)	5.51 µM (inactive)	7.06 µM (inactive)	14.1 µM (inactive)	11.3 µM (inactive)	8.85	4.76 µM (inactive)	16.9 µM (inactive)	18 µM (inactive)	3.25 µM (inactive)	6.67 µM (inactive)	13.4 µM (inactive)	5.25 µM (inactive)	4.73 µM (inactive)	8.71 µM (inactive)	18.1 µM (inactive)	10.7 µM (inactive)	6.97 µM (inactive)	3.18 µM (inactive)	7.69 µM (inactive)
CCCOC(=O)CCC(NC(=O)c1ccc(Nc2nc3ccccc3nc2-c2cccs2)cc1)C(=O)OCCC (configuration not stated)	19.1 µM (inactive)	> 100 µM (inactive)	> 100 µM (inactive)	> 100 µM (inactive)	> 100 µM (inactive)	> 100	2.31 µM (inactive)	> 100 µM (inactive)		> 100 µM (inactive)	> 100 µM (inactive)	> 100 µM (inactive)	> 100 µM (inactive)		> 100 µM (inactive)	> 100 µM (inactive)	> 100 µM (inactive)	24.8 µM (inactive)		> 100 µM (inactive)
CCC(C(C)N1CC(=O)NC(=O)C1)N1CC(=O)NC(=O)C1 (configuration not stated)	13.4 µM (inactive)	> 61.9 µM (inactive)	> 100 µM (inactive)	> 19.7 µM (inactive)	7.01 µM (inactive)	> 49.7	0.69 µM (active)	0.506 µM (active)	62.1 µM (inactive)	> 39.7 µM (inactive)	23.4 µM (inactive)	1.51 µM (inactive)	> 100 µM (inactive)	> 48.9 µM (inactive)		> 100 µM (inactive)	> 100 µM (inactive)	> 100 µM (inactive)	> 100 µM (inactive)	> 100 µM (inactive)
NC(=O)OCC1=C(COC(N)=O)C(=O)c2c(O)ccc(O)c2C1=O	> 100 µM (inactive)	> 100 µM (inactive)		> 100 µM (inactive)	> 100 µM (inactive)	> 100	55.8 µM (inactive)	58.7 µM (inactive)	> 100 µM (inactive)	> 100 µM (inactive)	> 100 µM (inactive)	> 100 µM (inactive)	> 100 µM (inactive)	> 100 µM (inactive)	> 100 µM (inactive)	> 100 µM (inactive)		78.7 µM (inactive)	> 100 µM (inactive)	> 100 µM (inactive)
Cc1cccc2c1Sc1ccccc1C2NC(=O)CN(C)C (configuration not stated)		> 100 µM (inactive)	> 100 µM (inactive)	> 100 µM (inactive)	> 100 µM (inactive)	> 100	59.7 µM (inactive)	> 100 µM (inactive)	69.2 µM (inactive)	> 100 µM (inactive)	> 100 µM (inactive)	> 100 µM (inactive)		16 µM (inactive)	43.4 µM (inactive)	> 100 µM (inactive)	> 100 µM (inactive)			52.4 µM (inactive)
COC(=O)C(C)(C)NC(=O)C(Cc1ccccc1)NC(=O)C(C)(C)NC(=O)OCc1ccccc1 (configuration not stated) (Cbz-[Aib]-[ξF]-[Aib]-OMe)	> 100 µM (inactive)	> 100 µM (inactive)	> 100 µM (inactive)	> 100 µM (inactive)	> 100 µM (inactive)	> 100	> 100 µM (inactive)	> 100 µM (inactive)	> 100 µM (inactive)		> 100 µM (inactive)	> 100 µM (inactive)	> 100 µM (inactive)		> 100 µM (inactive)	> 100 µM (inactive)	> 100 µM (inactive)		24.3 µM (inactive)	> 100 µM (inactive)
C[N+](C)(N)c1nc(N)c(C#N)c(C#N)c1C#N	> 10 µM (inactive)	> 10 µM (inactive)	> 10 µM (inactive)	> 10 µM (inactive)	> 10 µM (inactive)	> 10	> 10 µM (inactive)	> 10 µM (inactive)	> 10 µM (inactive)	> 10 µM (inactive)	> 10 µM (inactive)	> 10 µM (inactive)	1.91 µM (inactive)	> 10 µM (inactive)	> 10 µM (inactive)	> 10 µM (inactive)	> 10 µM (inactive)	> 10 µM (inactive)	> 10 µM (inactive)	> 10 µM (inactive)
COc1ccc(NC2=NCCO2)c2ccccc12	> 10 µM (inactive)		> 10 µM (inactive)	> 10 µM (inactive)	> 10 µM (inactive)	> 10	> 10 µM (inactive)	> 10 µM (inactive)	> 10 µM (inactive)	> 10 µM (inactive)	> 10 µM (inactive)	> 10 µM (inactive)	> 10 µM (inactive)	> 10 µM (inactive)	> 10 µM (inactive)	> 10 µM (inactive)	> 10 µM (inactive)	> 10 µM (inactive)	> 10 µM (inactive)	> 10 µM (inactive)
